According to patent US20170209445A1, “KINASE INHIBITORS” (Respivert Limited, priority 2014, published 2017):

How the values were obtained:
PBMCs [1] = assay: IL-2 release in CD3/CD28 stimulated PBMC cells; format: cell-based; conditions: Homo sapiens, read-out: IC50 Values for Inhibition of Cytokine Release PBMCs IL-2
Procedure: (§1) PBMCs from healthy subjects are separated from whole blood using a density gradient (Lymphoprep, Axis-Shield Healthcare). Cells are added to a 96 well plate pre-coated with a mixture of CD3/CD28 monoclonal antibodies (0.3 μg/mL eBioscience and 3 μg/mL BD Pharmingen respectively). Compound at the desired concentration is then added to the wells and the plate left for 3 days under normal tissue culture conditions. Supernatants are harvested and IL-2 and IFN gamma release determined by Sandwich ELISA (Duo-set, R&D System). The IC50 is determined from the dose response curve.

PBMCs [2] = assay: LPS-induced IL-8 release in PBMC cells; format: cell-based; conditions: Homo sapiens, LPS-stimulated PBMCs, read-out: IC50 Values for Inhibition of Cytokine Release PBMCs IL-8
Summary of the method: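 Healthy-donor PBMCs isolated by density gradient were pretreated with compound for 2 h, then stimulated with 1 ng/mL LPS (E. coli 0111:B4) for 24 h at 37° C., 5% CO2. IL-8 and TNFα in supernatants measured by sandwich ELISA.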

Lck = target: T1, Lck (Homo sapiens, UniProt P06239); assay: KINOMEscan dissociation constant, Lck; format: binding
T1 construct: purchased DiscoveRx Corporation (LeadHunter Discover Services, KINOMEscan)
Procedure: (§2) Kinase enzyme binding activities of compounds disclosed herein may be determined using a proprietary assay which measures active site-directed competition binding to an immobilized ligand (Fabian, M. A. et al., Nature Biotechnol., 2005, 23:329-336). These assays may be conducted by DiscoverX (formerly Ambit; San Diego, Calif.). The percentage inhibition produced by incubation with a test compound may be calculated relative to the non-inhibited control.

[3] = Hydrolytic stability study; format: physicochemical; conditions: DMSO/water (3:1), 1 mg/mL, experiment in which Example 2 was tested
Procedure: Chemical stability of compounds of the invention was assessed in a mixture of DMSO and water (3:1) at a test compound concentration of 1 mg/mL
General HPLC Procedure • Agilent, Waters X-Select C18, 2.5 μm, 4.6×30 mm column, 4 min method, 5-95% • MeCN/water (0.1% formic acid). • Flow rate 2.5 ml/min. • Column Oven Temperature 40° C. • Detection 254 nm.
Sample Preparation • A 1.0 mg sample of test compound was dissolved in 1 mL of DMSO/water (3:1) and the resulting mixture was stirred at rt overnight.
Recording Stability • A 50 μL aliquot of the test solution was removed and analysed in duplicate by 5 μL HPLC injections. The peak area for the test compound (taken to be 100% product, 0% degradation) was recorded following manual integration of the corresponding UV trace. The area retention time was also recorded. • The test solution was heated to 60° C. internal temperature (65° C. block temperature), with stirring, and timing commenced once the target temperature had been reached. After 5 and 24 h, samples were removed and analysed by HPLC (5 μL injections). In all cases, 5 μL injections were used and the samples analysed in duplicate. • The peak areas for the test compounds were recorded at both subsequent timepoints and the % decomposition calculated from the % change in peak area over time.

PBMCs [4] = assay: IFN gamma release in CD3/CD28 stimulated PBMC cells; format: cell-based; conditions: Homo sapiens, read-out: IC50 Values for Inhibition of Cytokine Release PBMCs IFNγ
Procedure: as §1

p38 MAPKα [5] = target: T2, p38 MAPKα (Homo sapiens, UniProt Q16539); assay: KINOMEscan dissociation constant, p38 MAPKα; format: binding
T2 construct: purchased Invitrogen
Procedure: as §2

Syk [6] = target: T3, Syk (Homo sapiens, UniProt P43405); assay: Syk enzyme inhibition, FRET Z-LYTE; format: biochemical
T3 construct: purchased Invitrogen
Procedure: (§3) The enzyme inhibitory activities of compounds disclosed herein are determined by FRET using synthetic peptides labelled with both donor and acceptor fluorophores (Z-LYTE, Invitrogen Ltd., Paisley, UK).
(§4) The inhibitory activities of compounds of the invention against c-Src and Syk enzymes (Invitrogen), are evaluated in a similar fashion to that described hereinabove. The relevant enzyme (3000 ng/mL or 2000 ng/mL respectively, 2.5 μL) is incubated with the test compound (either 4 μg/mL, 0.4 μg/mL, 0.04 μg/mL, or 0.004 μg/mL, 2.5 μL each) for 2 hr at RT. The FRET peptides (8 μM, 2.5 μL), and appropriate ATP solutions (2.5 μL, 800 μM for c-Src, and 60 μM ATP for Syk) are then added to the enzymes/compound mixtures and incubated for 1 hr. Development reagent (protease, 5 μL) is added for 1 hr prior to detection in a fluorescence microplate reader (Varioskan® Flash, ThermoFisher Scientific).
(§5) In all cases, the site-specific protease cleaves non-phosphorylated peptide only and eliminates the FRET signal. Phosphorylation levels of each reaction are calculated using the ratio of coumarin emission (donor) over fluorescein emission (acceptor), for which high ratios indicate high phosphorylation and low ratios indicate low phosphorylation levels.

p38 MAPKα [7] = target: T2, p38 MAPKα; assay: p38 MAPKα enzyme inhibition (Method 2), FRET Z-LYTE; format: biochemical
Procedure: as §3
The inhibitory activities of test compounds against the p38 MAPKα isoform (MAPK14: Invitrogen), are evaluated indirectly by determining the level of activation/phosphorylation of the down-stream molecule, MAPKAP-K2. The p38 MAPKα protein (80 ng/mL, 2.5 μL) is mixed with the test compound (2.5 μL of either 4 μg/mL, 0.4 μg/mL, 0.04 μg/mL or 0.004 μg/mL) for 2 hr at RT. […] The mixture is incubated for 1 hr at RT. Development reagent (protease, 5 μL) is added for 1 hr prior to detection in a fluorescence microplate reader (Varioskan® Flash, ThermoFisher Scientific).
This method follows the same steps as Method 1 above, but utilises a higher concentration of the p38 MAPKα protein (2.5 μL of 200 ng/mL protein instead of 2.5 μL of 80 ng/mL protein) for mixing with the test compound.
as §5

HT29 cells = assay: IL-1β-induced IL-8 release in HT29 cells; format: cell-based; conditions: Homo sapiens, HT-29; IL-1β-stimulated HT29 cells; read-out: IC50 Values for Inhibition of Cytokine Release HT29 cells IL-8
Procedure: HT29 cells, a human colon adenocarcinoma cell line, are plated in a 96 well plate (24 hrs) and pre-treated with compounds at the desired concentration for 2 hours before addition of 5 ng/mL of IL-1β (Abcam) for 24 hours. Supernatants are harvested for IL-8 quantification by Sandwich ELISA (Duo-set, R&D System). The IC50 is determined from the dose response curve.

c-Src = target: T4, c-Src (Homo sapiens, UniProt P12931); assay: c-Src enzyme inhibition, FRET Z-LYTE; format: biochemical
T4 construct: purchased Invitrogen
Procedure: as §3, §4, §5

GSK3α = target: T5, GSK3α (Homo sapiens, UniProt P49840); assay: GSK3α enzyme inhibition (Method 2), FRET Z-LYTE; format: biochemical
T5 construct: purchased Invitrogen
Procedure: as §3
The inhibitory activities of compounds of the invention against the GSK 3α enzyme isoform (Invitrogen), are evaluated by determining the level of activation/phosphorylation of the target peptide. The GSK3-α protein (500 ng/mL, 2.5 μL) is mixed with the test compound (2.5 μL at either 4 μg/mL, 0.4 μg/mL, 0.04 μg/mL, or 0.004 μg/mL) for 2 hr at RT. The FRET peptide (8 μM, 2.5 μL), which is a phosphorylation target for GSK3α, and ATP (40 μM, 2.5 μL) are then added to the enzyme/compound mixture and the resulting mixture incubated for 1 hr. Development reagent (protease, 5 μL) is added for 1 hr prior to detection in a fluorescence microplate reader (Varioskan® Flash, ThermoFisher Scientific).
as §5
This method follows the same steps as Method 1 above, but utilises a shorter period of mixing of the test compound (105 minutes instead of 2 hours) with the GSK3-α protein.

Syk [8] = target: T3, Syk; assay: KINOMEscan dissociation constant, Syk; format: binding
Procedure: as §2

PBMCs [9] = assay: Cell mitosis assay in PBMCs; format: cell-based, human
Procedure: Peripheral blood mononucleocytes (PBMCs) from healthy subjects are separated from whole blood (Quintiles, London, UK) using a density gradient (Histopaque®-1077, Sigma-Aldrich, Poole, UK). The PBMCs (3 million cells per sample) are subsequently treated with 2% PHA (phytohaemagglutinin, Sigma-Aldrich, Poole, UK) for 48 hr, followed by a 20 hr exposure to varying concentrations of test compounds. At 2 hr before collection, PBMCs are treated with demecolcine (0.1 μg/mL; Invitrogen, Paisley, UK) to arrest cells in metaphase. To observe mitotic cells, PBMCs are permeabilised and fixed by adding Intraprep (50 μL; Beckman Coulter, France), and stained with anti-phospho-histone 3 (0.26 ng/L; #9701; Cell Signalling, Danvers, Mass.) and propidium iodide (1 mg/mL; Sigma-Aldrich, Poole, UK) as previously described (Muehlbauer P. A. and Schuler M. J., Mutation Research, 2003, 537:117-130). Fluorescence is observed using an ATTUNE flow cytometer (Invitrogen, Paisley, UK), gating for lymphocytes.

Jurkat cells = assay: Cell cytotoxicity assay (Jurkat cell viability); format: cell-based, human; conditions: 24 hours
Procedure: 1×10^5 Jurkat cells (immortalised human T lymphocytes) are added to the appropriate number of wells of a 96 well plate in 100 μL of media (RPMI supplemented with 10% foetal bovine serum). 1 μL of DMSO control (final concentration 1.0% v/v) or test compound (final concentration 20, 5 or 1 μg/mL) is added to the wells and incubated at 37° C., 5% CO2. After 24 hours, the plate is centrifuged at 1200 rpm for 3 minutes and the supernatant discarded. Cells are then resuspended in 150 μL (final concentration 7.5 μg/mL) of propidium iodide (PI) in PBS and incubated at 37° C., 5% CO2 for 15 minutes. After 15 minutes, cells are analysed by flow cytometry (BD accuri) using the FL3 window. The % viability is calculated as the % of cells that are PI negative in the test wells normalised to the DMSO control.

T2 sequence (Q16539 whole entry): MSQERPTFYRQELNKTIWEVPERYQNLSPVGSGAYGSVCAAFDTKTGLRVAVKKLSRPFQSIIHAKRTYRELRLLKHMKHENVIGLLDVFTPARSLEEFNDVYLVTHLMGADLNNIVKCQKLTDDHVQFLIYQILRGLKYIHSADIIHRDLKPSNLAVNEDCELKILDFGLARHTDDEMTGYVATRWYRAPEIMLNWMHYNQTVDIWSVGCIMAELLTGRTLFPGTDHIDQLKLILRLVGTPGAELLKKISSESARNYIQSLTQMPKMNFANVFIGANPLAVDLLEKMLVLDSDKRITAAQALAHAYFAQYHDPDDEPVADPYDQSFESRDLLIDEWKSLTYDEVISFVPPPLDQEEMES
T1 sequence (P06239 whole entry): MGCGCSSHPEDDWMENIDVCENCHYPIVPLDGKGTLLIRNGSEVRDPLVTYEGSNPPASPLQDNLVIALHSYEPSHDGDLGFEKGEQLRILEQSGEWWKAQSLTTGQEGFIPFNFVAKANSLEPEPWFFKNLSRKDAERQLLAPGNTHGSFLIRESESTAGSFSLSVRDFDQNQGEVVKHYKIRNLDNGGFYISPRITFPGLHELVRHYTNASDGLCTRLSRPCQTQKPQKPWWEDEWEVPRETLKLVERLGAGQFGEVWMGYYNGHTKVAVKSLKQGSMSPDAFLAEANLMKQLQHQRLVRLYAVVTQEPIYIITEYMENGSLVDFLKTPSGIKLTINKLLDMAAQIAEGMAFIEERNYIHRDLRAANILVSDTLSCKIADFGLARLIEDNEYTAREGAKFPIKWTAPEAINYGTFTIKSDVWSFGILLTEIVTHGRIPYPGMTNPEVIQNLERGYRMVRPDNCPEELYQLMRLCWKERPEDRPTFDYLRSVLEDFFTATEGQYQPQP
T4 sequence (P12931 whole entry): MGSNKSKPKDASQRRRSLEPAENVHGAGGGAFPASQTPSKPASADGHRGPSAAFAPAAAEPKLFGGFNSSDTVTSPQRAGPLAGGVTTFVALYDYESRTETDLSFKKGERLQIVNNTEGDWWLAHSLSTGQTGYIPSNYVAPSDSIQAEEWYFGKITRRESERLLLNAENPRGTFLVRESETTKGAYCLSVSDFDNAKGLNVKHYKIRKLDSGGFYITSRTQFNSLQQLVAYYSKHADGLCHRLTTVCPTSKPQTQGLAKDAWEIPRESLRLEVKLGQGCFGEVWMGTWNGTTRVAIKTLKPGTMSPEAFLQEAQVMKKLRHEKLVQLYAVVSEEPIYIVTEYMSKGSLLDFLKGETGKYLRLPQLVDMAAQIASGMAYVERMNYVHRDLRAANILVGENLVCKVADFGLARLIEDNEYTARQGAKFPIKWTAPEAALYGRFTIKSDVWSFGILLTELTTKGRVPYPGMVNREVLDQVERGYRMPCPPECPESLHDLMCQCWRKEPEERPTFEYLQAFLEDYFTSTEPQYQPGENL
T5 sequence (P49840 whole entry): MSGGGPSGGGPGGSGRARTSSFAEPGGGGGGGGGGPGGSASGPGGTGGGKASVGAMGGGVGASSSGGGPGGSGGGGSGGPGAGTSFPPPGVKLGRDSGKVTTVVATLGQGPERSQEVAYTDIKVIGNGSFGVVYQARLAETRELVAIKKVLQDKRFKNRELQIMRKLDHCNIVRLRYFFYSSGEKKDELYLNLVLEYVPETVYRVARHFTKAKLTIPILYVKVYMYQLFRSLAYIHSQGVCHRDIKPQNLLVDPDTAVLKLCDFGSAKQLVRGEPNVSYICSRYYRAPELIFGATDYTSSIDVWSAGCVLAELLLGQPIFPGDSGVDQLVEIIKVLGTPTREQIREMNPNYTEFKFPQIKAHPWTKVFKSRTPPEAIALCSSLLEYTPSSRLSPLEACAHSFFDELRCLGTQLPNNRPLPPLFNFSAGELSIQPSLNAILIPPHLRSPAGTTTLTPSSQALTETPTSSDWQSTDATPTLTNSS

Kd (Lck) [nM]	% Parent Remaining ([3]; 60° C., 300 min) [%]	% Parent Remaining ([3]; 60° C., 1440 min) [%]	% Parent Remaining ([3]; time 0 min) [%]	Kd (p38 MAPKα [5]) [nM]	IC50 (Syk [6]) [nM]	IC50 (p38 MAPKα [7]) [nM]	IC50 (HT29 cells) [nM]	IC50 (c-Src) [nM]	IC50 (GSK3α) [nM]	Kd (Syk [8]) [nM]	Structure (SMILES)	IC50 (PBMCs [1]) [nM]	IC50 (PBMCs [2]) [nM]	IC50 (PBMCs [4]) [nM]	inhibition at 5 µg/mL (PBMCs [9]; Homo sapiens, PBMC, PBMCs, 5 μg/mL) [%]	impact on cell division (mitosis) in PBMCs, in words (PBMCs [9]; assay (g), compared with Reference Compound A)	% Viability at 1 μg/mL (Jurkat cells; 1 μg/mL) [%]	% Viability at 5 μg/mL (Jurkat cells; 5 μg/mL) [%]	% Viability at 20 μg/mL (Jurkat cells; 20 μg/mL) [%]
13	104.2	102.9	100	15	> 1250	32	78.7	27	> 12500	68	COCCOCCOCCOc1cc(Nc2ncc3cc(-c4cc(C(=O)Nc5cc(C(C)(C)C)cc(NS(C)(=O)=O)c5OC)ccc4C)ccc3n2)cc(OC)c1 [Example 2, N-(5-(tert-Butyl)-2-methoxy-3-(methylsulfonamido)phenyl)-3-(2-((3-methoxy-5-(2-(2-(2-methoxyethoxy)ethoxy)ethoxy)phenyl)amino)quinazolin-6-yl)-4-methylbenzamide]	126	26	53.3	–	–	–	–	–
6.7	–	–	–	3.9	781	12	–	18	> 13100	50	COc1cc(Nc2ncc3cc(-c4cc(C(=O)Nc5cc(C(C)(C)C)cc(C(N)=O)c5OC)ccc4C)ccc3n2)cc(C(=O)NCCN2CCOCC2)c1 [Example 3, N-(5-(tert-Butyl)-3-carbamoyl-2-methoxyphenyl)-3-(2-((3-methoxy-5-((2-morpholinoethyl)-carbamoyl)phenyl)amino)quinazolin-6-yl)-4-methylbenzamide]	16.5	8	18.4	66.3	markedly less active than the Reference Compound A	100.4	82.9	77.5
